Here are results for seven molecules from ChEMBL document CHEMBL1150847, “New lactone-containing metabolites from a marine-derived bacterium of the genus Streptomyces” (J Nat Prod, 2001).

Molecules are shown by their SMILES. The source made the active and inactive calls. No cut-off for these calls is given here.

In this assay the test system is Candida albicans. As to the kind of experiment: Antifungal activity against Candida albicans by paper disk method. Format: functional, organism-based.
For the molecule `CCC(C)C[C@H]1C(=O)O[C@@H](C)[C@@H]1O` (some centres not stated), the result was Active.

As to `CC(C)CC[C@H]1C(=O)O[C@@H](C)[C@@H]1O`, the result was Active.

On to `CC(C)(O)CCCCCC1C=CC(=O)O1` (configuration not stated), for which the result was Active.

Turning to `CC(C)CC[C@@H]1C(=O)O[C@@H](C)[C@@H]1O`, the outcome was Active.

Regarding `CCCC[C@H]1C(=O)O[C@@H](C)[C@@H]1O`, the outcome was Active.

Turning to `CCC(C)(O)CCCCCC1C=CC(=O)O1` (configuration not stated), the outcome was Active.

Take `CC(=O)C(C)CCCCCC1C=CC(=O)O1` (configuration not stated): the outcome was Active.
